Consider ten compounds from PubChem BioAssay (NCI).

“And” between values parts separate entries of the source, which are not always exact repeats. Equal entries are not always repeated.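 Briefly, cells in 96-well plates were exposed to five compound concentrations for 48 h, and endpoints were estimated by linear interpolation. The concentration for 50% growth inhibition is given as GI50. At the TGI there is no net growth.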

What all share (assay): NCI anticancer screen, dose series, 48 h
Assay [1] deals with HCT-15 colon.
Assay [2] concerns K-562 leukemia.
Assay [3] concerns A549 NSCLC.
For assay [4], the system named is OVCAR-3 ovarian.
Assay [5] deals with EKVX NSCLC.
Assay [6] deals with SF-268 CNS.
Assay [7] concerns NCI-H522 lung.
The subject of assay [8] is OVCAR-5 ovarian.
Assay [9] has as its system PC-3 prostate.
Assay [10] has as its system NCI-H460 lung.

Turning to `C=C(Cn1c2ccccc2c(=O)c2ccccc21)c1ccc(C(=O)Nc2ccccc2N)cc1`, the GI50 is 3.48 µM in assay [1]; 1.35 µM in assay [2]; 28.5 µM in [3]; 6.5 µM in assay [4]; above 21.5 µM in assay [5]; 5.74 µM in [6]. Besides, the GI50 in [7] is 2.72 µM; in assay [8], above 100 µM; in assay [9], 0.761 µM; in assay [10], 4.72 µM. The TGI in assay [1], in assay [2], in [3], in assay [4], in assay [5] and in [6] was above 100 µM in each case. Also, the TGI in assay [7], in [8], in [9] and in assay [10] was above 100 µM in each case.

As to `COC(=O)[C@]1(C)CCC[C@]2(C)[C@@H]1CCC13C[C@@H](C=CO1)[C@@H](C)CC32O` (stereo partly drawn), the GI50 is above 100 µM in assay [1]; 36.7 µM in [2]; 33.1 µM in [3]; 17.8 µM in assay [4]; 2.07 µM in assay [5]; above 100 µM in assay [6]. For the same compound, the GI50 in [7] was above 100 µM; in assay [8], above 100 µM; in assay [9], 38 µM; in [10], 43.8 µM. In addition, the TGI in assay [1] was above 100 µM; in assay [2] it was above 100 µM; in assay [3], above 100 µM; in assay [4] it was 46.8 µM; in assay [5], above 100 µM; in assay [6], above 100 µM. In addition, the TGI in assay [7], in assay [8], in assay [9] and in assay [10] was above 100 µM in each case.

For the compound `Oc1ccccc1C=Nc1nc(OCc2ccccc2)nc2[nH]ncc12`, the GI50 was 38.3 µM in assay [1]; 30.3 µM in [2]; 38.7 µM in assay [3]; 17.8 µM in [4]; 30.1 µM in assay [5]; 20.1 µM in assay [6]. Moreover, the GI50 in assay [7] was 26.3 µM; in assay [8], 27.2 µM; in assay [9], 16.8 µM; in [10], 24.4 µM. For the same compound, the TGI in [1] was above 100 µM; in assay [2], above 100 µM; in [3], above 100 µM; in assay [4] it was 49.1 µM; in [5], 97.8 µM; in [6], 77.5 µM. Also, the TGI was above 100 µM in assay [7], 83.9 µM in [8], 51.4 µM in [9] and above 100 µM in assay [10].

As to `CNCc1ccc(-c2[nH]c3cc(F)cc4c3c2CCNC4=O)cc1`, the GI50 is 35.8 µM in assay [1]; 18 µM in assay [2]; 19.4 µM in [3]; 19.9 µM in [4]; 26.1 µM in assay [5]; 22.8 µM in assay [6]. Besides, the GI50 in assay [7] is 19 µM; in assay [8], 19.1 µM; in assay [9], 23.6 µM; in [10], 14.9 µM. In addition, the TGI is above 100 µM in assay [1]; 43.9 µM in assay [2]; above 71.2 µM in assay [3]; 47.2 µM in assay [4]; above 83.1 µM in [5]; 66 µM in assay [6]. In addition, the TGI in assay [7] was 39.4 µM; in [8] it was 55.5 µM; in assay [9], above 100 µM; in assay [10], 42.3 µM.

Take `C#CC#CC#CC#CC#CC#CC#CC#CC[C@@H]1OC[C@@H](COC(=O)O[C@@H](C(=O)O[C@H]2C[C@@]3(O)[C@@H](OC(=O)c4ccccc4)[C@@H]4[C@]5(OC(C)=O)CO[C@@H]5C[C@H](O)[C@@]4(C)C(=O)[C@H](OC(C)=O)C(=C2C)C3(C)C)[C@@H](NC(=O)c2ccccc2)c2ccccc2)O1`: the GI50 is 1.11 µM in assay [1]; 0.17 µM in assay [2]; 0.285 µM in assay [3]; 0.142 µM in assay [4]; 2.25 µM in [5]; 0.593 µM in [6]. The GI50 is 0.367 µM in assay [7], 0.333 µM in [8], 0.345 µM in [9] and 0.101 µM in assay [10]. Besides, the TGI was above 33.3 µM in assay [1]; above 33.3 µM in assay [2]; above 33.3 µM in assay [3]; above 33.3 µM in assay [5]; above 33.3 µM in assay [6]; above 17.6 µM in assay [7]. Further, the TGI in [8], in [9] and in assay [10] was above 33.3 µM each time.

For `CCCCC[C@@H](C/C=C/CCC(=O)NC/C(=C/Cl)[C@H]1C(=O)C(C)(C)C(=O)[C@@H](C)[C@@]1(C)O)OC`, the GI50 in assay [1] is 17.1 µM; in [2], 21.8 µM; in assay [3], 16.2 µM; in assay [4] it was 16.3 µM; in [5], 13.5 µM; in assay [6], 17.6 µM. Further, the GI50 is 13.9 µM in [7], 18.9 µM in [8], 19.6 µM in assay [9] and 17.7 µM in [10]. The TGI in [1] amounted to 32 µM; in [2], 48.5 µM; in assay [3], 33.3 µM; in assay [4], 30.5 µM; in assay [5] it was 30.5 µM; in assay [6], 34.6 µM. Further, the TGI in assay [7] was 28 µM; in [8], 34.7 µM; in [9], 43.5 µM; in assay [10], 35.1 µM.

Turning to `O=NN(CCCl)C(=O)NC1CCCCC1`, the GI50 is 16.8 µM and 54.7 µM in [1]; 10.9 µM and 36.6 µM in [2]; 45.6 µM and 92.2 µM in assay [3]; 13.5 µM in assay [4]; 92.3 µM in [5]; 21 µM and 33.6 µM in assay [6]. Also, the GI50 in assay [7] is 12.5 µM and 42.5 µM; in assay [8], 247 µM; in [10], 24.1 µM and 67.7 µM. In addition, the TGI was 33.5 µM and 103 µM and 115 µM in assay [1]; 43.9 µM and 228 µM and 106 µM in assay [2]; 184 µM and 244 µM in [3]; 34.5 µM and 142 µM in assay [4]; 160 µM and 224 µM in assay [5]; 57.9 µM and 120 µM and 235 µM in assay [6]. For the same compound, the TGI in assay [7] was 26.1 µM and 75.4 µM and 83.2 µM; in assay [8], 168 µM and 363 µM; in [9], 136 µM; in [10], 69.2 µM and 124 µM and 187 µM.

For the compound `COc1c(O)c2c3c(c1OC)-c1ccccc1CC3N(S(=O)(=O)c1ccc(C)cc1)CC2` (stereo not drawn), the GI50 is 2.05 µM in assay [1]; 0.223 µM in assay [2]; 2 µM in assay [3]; 1.18 µM in [4]; 4.04 µM in assay [5]; 4.56 µM in assay [6]. Also, the GI50 in assay [7] was 1.28 µM; in assay [8], 2.69 µM; in assay [9], 1.65 µM; in assay [10], 1.58 µM. Also, the TGI is above 50 µM in assay [1]; 7.65 µM in [2]; above 50 µM in assay [3]; 2.68 µM in assay [4]; above 50 µM in [5]; above 50 µM in assay [6]. For the same compound, the TGI in assay [7] was 3.55 µM; in [8], above 50 µM; in [9], above 50 µM; in assay [10], above 50 µM.

`COc1ccc(OCC(O)CN2CCN(c3ccc(Cl)cc3)CC2)cc1` (stereo not drawn): the GI50 is above 100 µM in assay [1]; above 100 µM in assay [2]; above 100 µM in assay [3]; above 100 µM in assay [4]; 9.82 µM in [5]; 80.6 µM in assay [6]. The GI50 in assay [7] was 69.3 µM; in [8], above 100 µM; in assay [9], above 100 µM; in assay [10], above 100 µM. For the same compound, the TGI in assay [1], in assay [2], in assay [3], in [4], in assay [5] and in assay [6] was above 100 µM in each case. For the same compound, the TGI in assay [7], in assay [8], in assay [9] and in assay [10] was above 100 µM each time.

Consider `Nc1ncc(C2[C@H](CNC(=O)c3cc(Br)c[nH]3)C(CNC(=O)c3cc(Br)c[nH]3)[C@@H]2c2cnc(N)[nH]2)[nH]1` (stereo partly drawn), for which the GI50 in assay [1] is above 50 µM; in assay [2], 48.1 µM; in [3], above 50 µM; in assay [4], above 50 µM; in [5], 5.56 µM; in assay [6], above 50 µM. For the same compound, the GI50 in assay [7], in assay [8], in assay [9] and in assay [10] was above 50 µM in each case. In addition, the TGI in [1] is above 50 µM; in assay [2], above 50 µM; in assay [3] it was above 50 µM; in assay [4], above 50 µM; in [5], 45.6 µM; in [6], above 50 µM. The TGI in assay [7], in [8], in [9] and in assay [10] was above 50 µM throughout.
